pIC50: −log10 of the molar value.
Test system: 922993-354-T-J3-PDC complex spheroids, viability, % test/control
Assay: Anticancer human tumor 922993-354-T-J3-PDC patient-derived endometrial carcinoma cell line growth inhibition [CLK]
Conditions: for pIC50: curve of first compound; for viability, T/C: stronger effect = lower value
Source text: A high-throughput screen of multi-cell type tumor spheroids was designed to identify active combinations of […] and targeted small molecules. Complex spheroids include a stromal component modeled by human endothelial cells (HUVEC) and fibroblasts modeled by human mesenchymal stem cells (MSCs). The concentration ranges selected for each drug and investigational agent were based upon clinically achievable concentrations if the clinical Cmax of the agent was known.
Compounds. The drugs and investigational agents: cirtuvivint (SM08502; NSC835563), CC-671 (NSC850746), vemurafenib (NSC761431), tapotoclax (NSC804041), sotorasib (NSC818433), adagrasib (NSC831453), MRTX-1133 (NSC836407), BAY2416964 (NSC825713), copanlisib (NSC816437), inavolisib (NSC800729), abemaciclib (NSC768073), osimertinib (NSC779217), entinostat (NSC756642), eltanexor (KPT-8602, NSC794443), venetoclax (NSC766270), ceralasertib (NSC777638), bortezomib (NSC756655), olaparib (NSC753686), talazoparib (NSC767125), alisertib (NSC759677), peposertib (NSC802822), gemcitabine (NSC613327), 5-fluorouracil (NSC19893), SN-38 (NSC673596), oxaliplatin (NSC266046), paclitaxel (NSC125973), and doxorubicin (NSC123127), were obtained from the National Cancer Institute (NCI) Developmental Therapeutics Program Chemical Repository. The FDA-approved anticancer drug set is available from the Developmental Therapeutics Program at https://dtp.cancer.gov/organization/dscb/obtaining/available plates.htm. […] The stock solutions were prepared in dimethyl sulfoxide (DMSO, Sigma-Aldrich, St. Louis, MO, cat. D2650), except for the platinum complexes which were prepared in saline (Quality Biological, Gaithersburg, MD, cat. 114-055-101), at 800-fold the tested concentration and stored at -70 degrees C prior to their use. All drugs and investigational agents were tested over a range starting from a high concentration at or near the clinical Cmax and decreasing in half-log increments. If the clinical Cmax for an agent had not been determined, the highest concentration tested was 10 microM.
Cell Culture. All cells were maintained in an incubator at 37 degrees C and 5% CO2 with 95% humidity. The PDC lines were cultured according to standard operating procedures established by the NCI PDMR. Briefly, all PDCs were thawed and cultured in Matrigel-coated flasks prepared with a working solution of 1X Ham's F-12 nutrient mix, without supplementation (Invitrogen, Waltham, MA, cat. 11765054), 100 U/mL penicillin-streptomycin (Invitrogen, cat. 15140122), and 2.5% Matrigel (Corning Inc., Corning, NY, cat. 354248) for the first three passages. The 947758-054-R-J2-PDC line was cultured in 6B/Colon 1A media, which includes advanced DMEM/F-12 (Thermo Fisher Scientific, cat. 12634028), 10 mM HEPES (Thermo Fisher Scientific, cat. 15630080), 1X GlutaMAX supplement (Thermo Fisher Scientific, cat. 35050061), 0.1 mg/mL primocin (InvivoGen, cat. ant-pm-2), 10% defined fetal bovine serum, heat inactivated (HyClone Laboratories Inc., cat. SH30070.03HI), 1.25 mM N-Acetyl-L-cysteine (Sigma-Aldrich, cat. A9165), 10 mM nicotinamide (Sigma-Aldrich, cat. N0636), 1X B-27 supplement (Thermo Fisher Scientific, cat. 17504044), 1X N-2 supplement (Thermo Fisher Scientific, cat. 17502048), and 10 microM Y-27632 dihydrochloride (Tocris Bioscience, cat. 1254). The 876862-298-R-J1-PDC was cultured in 6E media, which includes all 6B/Colon 1A media components plus 50% L-WRN conditioned media (ATCC, cat. CRL-3276), 50 ng/mL recombinant human EGF recombinant protein (hEGF; Thermo Fisher Scientific, cat. PHG0311), 10 ng/mL recombinant human fibroblast growth factor 10 (hGFG-10; PeproTech, cat. 100-26), 1 ng/mL recombinant human fibroblast growth factor 2 (hFGF-2; PeproTech, cat. 100-18B), and 1 µM prostaglandin E2 (PGE2; Tocris, cat. 2296). The 227483-062-R1-J1-PDC line was cultured in Panc media, containing all 6E components except hFGF-2, with the addition of 500 nM SB-431542 (Selleckchem, cat. S1067) and 10 nM gastrin (Tocris, cat. 3006). […]

[1] = second compound 0.0316 µM, first compound 0.0316 µM
[2] = second compound 0.0316 µM, first compound 0.1 µM
[3] = second compound 0.0316 µM, first compound 0.316 µM
[4] = second compound 0.0316 µM, first compound 1 µM
[5] = second compound 0.0316 µM, first compound 3.16 µM
[6] = second compound 0.0316 µM, first compound 10 µM
[7] = second compound 0.1 µM, first compound 0.0316 µM
[8] = second compound 0.1 µM, first compound 0.1 µM
[9] = second compound 0.1 µM, first compound 0.316 µM
[10] = second compound 0.1 µM, first compound 1 µM
[11] = second compound 0.1 µM, first compound 3.16 µM
[12] = second compound 0.1 µM, first compound 10 µM
[13] = second compound 0.316 µM, first compound 0.0316 µM
[14] = second compound 0.316 µM, first compound 0.1 µM
[15] = second compound 0.316 µM, first compound 0.316 µM
[16] = second compound 0.316 µM, first compound 1 µM
[17] = second compound 0.316 µM, first compound 3.16 µM
[18] = second compound 0.316 µM, first compound 10 µM
[19] = second compound 1 µM, first compound 0.0316 µM
[20] = second compound 1 µM, first compound 0.1 µM
[21] = second compound 1 µM, first compound 0.316 µM
[22] = second compound 1 µM, first compound 1 µM
[23] = second compound 1 µM, first compound 3.16 µM
[24] = second compound 1 µM, first compound 10 µM
[25] = second compound 3.16 µM, first compound 0.0316 µM
[26] = second compound 3.16 µM, first compound 0.1 µM
[27] = second compound 3.16 µM, first compound 0.316 µM
[28] = second compound 3.16 µM, first compound 1 µM
[29] = second compound 3.16 µM, first compound 3.16 µM
[30] = second compound 3.16 µM, first compound 10 µM
[31] = second compound 10 µM, first compound 0.0316 µM
[32] = second compound 10 µM, first compound 0.1 µM
[33] = second compound 10 µM, first compound 0.316 µM
[34] = second compound 10 µM, first compound 1 µM
[35] = second compound 10 µM, first compound 3.16 µM
[36] = second compound 10 µM, first compound 10 µM
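Further: spheroids exposed to the agents for 7 days before readout.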

`CCCS(=O)(=O)Nc1ccc(F)c(C(=O)c2c[nH]c3ncc(-c4ccc(Cl)cc4)cc23)c1F` + CN1CCN(c2cc(C(=O)Nc3cc4cc(-c5cnn(C)c5)ccc4cn3)ccn2)CC1 was tested, and the pIC50 (second compound 0.0316 µM) was less than 5.00, the pIC50 (second compound 0.1 µM) was 5.04 and the pIC50 (second compound 0.316 µM) was greater than 7.50. It also gave a pIC50 (second compound 1 µM) greater than 7.50, a pIC50 (second compound 3.16 µM) greater than 7.50 and a pIC50 (second compound 10 µM) greater than 7.50. The viability, T/C [1] was 95.3%, the viability, T/C [2] was 113% and the viability, T/C [3] was 118%. It also gave a viability, T/C [4] of 97.9%, a viability, T/C [5] of 96.6% and a viability, T/C [6] of 65.3%. It also gave a viability, T/C [7] of 107%, a viability, T/C [8] of 90.5% and a viability, T/C [9] of 91.5%. It also gave a viability, T/C [10] of 87.6%, a viability, T/C [11] of 86.2% and a viability, T/C [12] of 46.7%. For the same molecule, the viability, T/C [13] was 46.6%, the viability, T/C [14] was 40.4% and the viability, T/C [15] was 43.4%. For the same molecule, the viability, T/C [16] was 43.9%, the viability, T/C [17] was 44.6% and the viability, T/C [18] was 26.7%. It also gave a viability, T/C [19] of 0.14%, a viability, T/C [20] of 0.16% and a viability, T/C [21] of 0.15%. It also gave a viability, T/C [22] of 0.15%, a viability, T/C [23] of 1.71% and a viability, T/C [24] of 1.78%. It also gave a viability, T/C [25] of 0.09%, a viability, T/C [26] of 0.13% and a viability, T/C [27] of 0.82%. The viability, T/C [28] was 0.14%, the viability, T/C [29] was 2.22% and the viability, T/C [30] was 1.32%. The viability, T/C [31] was 0.18%, the viability, T/C [32] was 0.16% and the viability, T/C [33] was 1.26%. It also gave a viability, T/C [34] of 0.19%, a viability, T/C [35] of 1.53% and a viability, T/C [36] of 0.25%.

`COC1C=CCC(C)C(C)S(=O)(=O)NC(=O)c2ccc3c(c2)N(CC2CCC21)CC1(CCCc2cc(Cl)ccc21)CO3` (centres undefined) + CN1CCN(c2cc(C(=O)Nc3cc4cc(-c5cnn(C)c5)ccc4cn3)ccn2)CC1 was tested, and the pIC50 (second compound 0.0316 µM) was 5.27, the pIC50 (second compound 0.1 µM) was 5.42 and the pIC50 (second compound 0.316 µM) was greater than 7.50. It also gave a pIC50 (second compound 1 µM) greater than 7.50, a pIC50 (second compound 3.16 µM) greater than 7.50 and a pIC50 (second compound 10 µM) greater than 7.50. It also gave a viability, T/C [1] of 111%, a viability, T/C [2] of 107% and a viability, T/C [3] of 85.1%. It also gave a viability, T/C [4] of 91.4%, a viability, T/C [5] of 84.9% and a viability, T/C [6] of 13.6%. The viability, T/C [7] was 122%, the viability, T/C [8] was 99.7% and the viability, T/C [9] was 85.6%. It also gave a viability, T/C [10] of 90.1%, a viability, T/C [11] of 60.6% and a viability, T/C [12] of 10.8%. For the same molecule, the viability, T/C [13] was 42.2%, the viability, T/C [14] was 48% and the viability, T/C [15] was 31.7%. It also gave a viability, T/C [16] of 21.1%, a viability, T/C [17] of 13.6% and a viability, T/C [18] of 7.1%. For the same molecule, the viability, T/C [19] was 0.12%, the viability, T/C [20] was 0.13% and the viability, T/C [21] was 0.15%. It also gave a viability, T/C [22] of 0.22%, a viability, T/C [23] of 0.1% and a viability, T/C [24] of 0.79%. For the same molecule, the viability, T/C [25] was 0.11%, the viability, T/C [26] was 0.17% and the viability, T/C [27] was 1.93%. It also gave a viability, T/C [28] of 0.13%, a viability, T/C [29] of 2.55% and a viability, T/C [30] of 0.89%. For the same molecule, the viability, T/C [31] was 0.15%, the viability, T/C [32] was 1.42% and the viability, T/C [33] was 1.53%. For the same molecule, the viability, T/C [34] was 0.22%, the viability, T/C [35] was 0.8% and the viability, T/C [36] was 2.41%.
